Assay results: ChEMBL document CHEMBL1156829 (Proc Natl Acad Sci U S A, 2008)

How the values were obtained:
[1] = NOVARTIS: Cytotoxicity against human hepatocellular carcinoma cell line (Huh7); type: toxicity, cell-based, Huh-7; settings: Huh7 cells (hepatocellular carcinoma cell line)
Plasmodium falciparum [2] = test: NOVARTIS: Inhibition of Plasmodium falciparum W2 (drug-resistant) proliferation in erythrocyte-based infection assay; type: functional, organism-based; settings: Plasmodium falciparum, W2; read-out: EC50
Plasmodium falciparum [3] = test: NOVARTIS: Inhibition of Plasmodium falciparum 3D7 (drug-susceptible) proliferation in erythrocyte-based infection assay; type: functional, organism-based; settings: Plasmodium falciparum, 3D7

## CCN1CCN(c2cc(C)c3cc(NC(=O)c4cc(=O)c5ccccc5o4)ccc3n2)CC1
[1]
  CC50: > 10000 nM
Plasmodium falciparum [2]
  EC50: 386 nM
Plasmodium falciparum [3]
  EC50: 498 nM

## O=C1c2ccccc2-c2nnc(-c3ccccc3)cc21
[1]
  CC50: > 10000 nM
Plasmodium falciparum [2]
  EC50: 392 nM
Plasmodium falciparum [3]
  EC50: 268 nM

## c1ccc(C2CC(C3CC(c4ccccc4)OC(c4ccccc4)C3)CC(c3ccccc3)O2)cc1 (stereo not given)
[1]
  CC50: > 10000 nM
Plasmodium falciparum [2]
  EC50: 394 nM
Plasmodium falciparum [3]
  EC50: 1240 nM

## CN(C)CCNc1cc(-c2ccccc2)nc2ccccc12
[1]
  CC50: 21200 nM
Plasmodium falciparum [2]
  EC50: 819 nM
Plasmodium falciparum [3]
  EC50: 692 nM

## O=C(O)CSc1nc2c(ccc3nsnc32)[nH]1
[1]
  CC50: > 10000 nM
Plasmodium falciparum [2]
  EC50: > 1440 nM
Plasmodium falciparum [3]
  EC50: > 964 nM

## O=C(CCl)NCCOc1ccc(Cl)cc1Cl
[1]
  CC50: 13000 nM
Plasmodium falciparum [2]
  EC50: 511 nM
Plasmodium falciparum [3]
  EC50: 538 nM

## CC(=NNC(=S)NN)c1ccccn1
[1]
  CC50: > 10000 nM
Plasmodium falciparum [2]
  EC50: 386 nM
Plasmodium falciparum [3]
  EC50: 1370 nM

## COc1ccc(Nc2nc(NN=Cc3cccc(I)c3)nc(Nc3ccc([N+](=O)[O-])cc3)n2)cc1
[1]
  CC50: > 11700 nM
Plasmodium falciparum [2]
  EC50: 454 nM
Plasmodium falciparum [3]
  EC50: 305 nM

## COc1cc(NC(=O)Cc2ccccc2OC)cc(OC)c1
[1]
  CC50: > 10000 nM
Plasmodium falciparum [2]
  EC50: > 386 nM
Plasmodium falciparum [3]
  EC50: > 1690 nM

## Cn1nc(C(F)(F)F)c(C(=O)Nc2cccc(C(F)(F)F)c2)c1SCc1ccc(Cl)cc1
[1]
  CC50: 31300 nM
Plasmodium falciparum [2]
  EC50: 1200 nM
Plasmodium falciparum [3]
  EC50: 1010 nM

## COc1cc(CNCCCN(C)C)ccc1OCc1ccc(F)cc1Cl
[1]
  CC50: 4160 nM
Plasmodium falciparum [2]
  EC50: 159 nM
Plasmodium falciparum [3]
  EC50: 92 nM

## c1ccc(Nc2ccnc(Nc3ccccc3)n2)cc1
[1]
  CC50: > 49000 nM
Plasmodium falciparum [2]
  EC50: 1930 nM
Plasmodium falciparum [3]
  EC50: 804 nM

## CN1C[C@@H](CSc2ccccn2)C=C2c3cccc4[nH]cc(c34)C[C@H]21
[1]
  CC50: > 10000 nM
Plasmodium falciparum [2]
  EC50: 393 nM
Plasmodium falciparum [3]
  EC50: 226 nM

## Cc1cc(Nc2cccc3ccccc23)nc(Nc2cccc3ccccc23)n1
[1]
  CC50: > 10000 nM
Plasmodium falciparum [2]
  EC50: 395 nM
Plasmodium falciparum [3]
  EC50: 274 nM

## CCOC(=O)COC1=C(CCCCC2CCCCC2)C(=O)c2ccccc2C1=O
[1]
  CC50: 31000 nM
Plasmodium falciparum [2]
  EC50: 1220 nM
Plasmodium falciparum [3]
  EC50: 58.1 nM

## Cc1cc(S(=O)(=O)NC(Cc2ccc([N+](=O)[O-])cc2)C(=O)O)c(Cl)cc1Cl (stereo not given)
[1]
  CC50: > 10000 nM
Plasmodium falciparum [2]
  EC50: 391 nM
Plasmodium falciparum [3]
  EC50: > 1250 nM

## CCN(CC)CCCN(Cc1cc2cc(OC)ccc2[nH]c1=O)C(=S)Nc1cccc(Cl)c1
[1]
  CC50: 20500 nM
Plasmodium falciparum [2]
  EC50: 809 nM
Plasmodium falciparum [3]
  EC50: 798 nM

## O=C(NNc1nc2ccccc2nc1Cl)Nc1ccc(Cl)cc1
[1]
  CC50: 7760 nM
Plasmodium falciparum [2]
  EC50: 306 nM
Plasmodium falciparum [3]
  EC50: 218 nM

## O=C1C(Nc2ccccc2)=C(N2CCCCC2)C(=O)c2ccccc21
[1]
  CC50: 15000 nM
Plasmodium falciparum [2]
  EC50: 590 nM
Plasmodium falciparum [3]
  EC50: 383 nM

## CN(CCCNc1ccnc2cc(Cl)ccc12)C(=O)c1ccccc1
[1]
  CC50: > 10000 nM
Plasmodium falciparum [2]
  EC50: 391 nM
Plasmodium falciparum [3]
  EC50: 723 nM

## O=C1CN(C(=O)CCC2CCCCC2)C(c2ccccc2)c2cc(F)ccc2N1 (stereo not given)
[1]
  CC50: 33200 nM
Plasmodium falciparum [2]
  EC50: 1300 nM
Plasmodium falciparum [3]
  EC50: 1070 nM

## CCN(CC)C(=O)COc1ccccc1CNCc1ccccc1
[1]
  CC50: > 10000 nM
Plasmodium falciparum [2]
  EC50: 1440 nM
Plasmodium falciparum [3]
  EC50: > 1250 nM

## NS(=O)(=O)c1ccc(N/C=C/C(=O)c2ccc(Cl)s2)cc1
[1]
  CC50: > 8690 nM
Plasmodium falciparum [2]
  EC50: > 1250 nM
Plasmodium falciparum [3]
  EC50: 1830 nM

## CCOC(=O)c1c(Cl)nnc(-c2ccccc2)c1-c1ccccc1
[1]
  CC50: > 10000 nM
Plasmodium falciparum [2]
  EC50: > 1440 nM
Plasmodium falciparum [3]
  EC50: 797 nM

## COCOc1ccc(-c2nc(-c3ccncc3)cnc2N)cc1
[1]
  CC50: > 10000 nM
Plasmodium falciparum [2]
  EC50: > 1440 nM
Plasmodium falciparum [3]
  EC50: 1430 nM

## COc1ccc(Nc2nc(NCc3ccco3)c3ccccc3n2)cc1
[1]
  CC50: 2970 nM
Plasmodium falciparum [2]
  EC50: 421 nM
Plasmodium falciparum [3]
  EC50: 253 nM

## Cc1ccccc1Cn1cc(NC(=O)c2cc(-c3cccs3)on2)cn1
[1]
  CC50: > 10000 nM
Plasmodium falciparum [2]
  EC50: 1420 nM
Plasmodium falciparum [3]
  EC50: > 1250 nM

## CCCC(C(=O)NC(C)(C)C)N1C(=O)c2cc(NC(C)=O)ccc2NC(=O)[C@@H]1c1ccccc1 (stereo not given in full)
[1]
  CC50: 5450 nM
Plasmodium falciparum [2]
  EC50: > 790 nM
Plasmodium falciparum [3]
  EC50: > 65.6 nM

## Cc1ccc(CN2CCN(Cc3ccccc3)CC2)o1
[1]
  CC50: > 8970 nM
Plasmodium falciparum [2]
  EC50: 1300 nM
Plasmodium falciparum [3]
  EC50: > 1250 nM

## O=C(CCCn1c(SCc2ccccc2F)nc2ccccc2c1=O)N1CCCC1
[1]
  CC50: > 10000 nM
Plasmodium falciparum [2]
  EC50: > 1440 nM
Plasmodium falciparum [3]
  EC50: 1060 nM

## CCCCCCN(C(=O)c1ccc2c(c1)OCO2)C(CC)c1nc2ccccc2c(=O)n1-c1ccccc1OC (stereo not given)
[1]
  CC50: > 4510 nM
Plasmodium falciparum [2]
  EC50: 647 nM
Plasmodium falciparum [3]
  EC50: 862 nM

## Cc1cccc(CSc2nnc(C(Cc3ccccc3)NC(=O)C3CCCCC3)n2-c2ccc(Cl)cc2Cl)c1 (stereo not given)
[1]
  CC50: > 10000 nM
Plasmodium falciparum [2]
  EC50: 1430 nM
Plasmodium falciparum [3]
  EC50: 1240 nM

## CCNC(=O)N1CCN(CCN(C/C=C/c2ccccc2OC)C(=O)CC(C)CC(C)(C)C)CC1 (stereo not given)
[1]
  CC50: > 10000 nM
Plasmodium falciparum [2]
  EC50: 1430 nM
Plasmodium falciparum [3]
  EC50: > 1250 nM

## Cc1ccccc1/C=C1/SC(=Nc2ccccc2)NC1=O
[1]
  CC50: > 10000 nM
Plasmodium falciparum [2]
  EC50: > 1420 nM
Plasmodium falciparum [3]
  EC50: > 528 nM

## CCc1cccc(NS(=O)(=O)c2ccc3[nH]c(=O)c(=O)[nH]c3c2)c1
[1]
  CC50: > 10000 nM
Plasmodium falciparum [2]
  EC50: > 1450 nM
Plasmodium falciparum [3]
  EC50: > 1040 nM

## Cc1oc2c(c1C(=O)NCCCn1ccnc1)C(=O)c1ccccc1C2=O
[1]
  CC50: 270 nM
Plasmodium falciparum [2]
  EC50: 39.1 nM
Plasmodium falciparum [3]
  EC50: 90.4 nM

## O=C(Nc1ccc(F)c(F)c1)c1cc2cc(C3(O)CCN(Cc4ccccc4F)CC3)ccc2o1
[1]
  CC50: 12800 nM
Plasmodium falciparum [2]
  EC50: 1850 nM
Plasmodium falciparum [3]
  EC50: 1500 nM

## Cc1ccc(C)c(Nc2nc(NCc3ccco3)c3ccccc3n2)c1
[1]
  CC50: 5940 nM
Plasmodium falciparum [2]
  EC50: 844 nM
Plasmodium falciparum [3]
  EC50: 298 nM

## CC(=O)N1CC(=NNC(=O)C(C)Nc2c(C)cccc2C)c2ccccc21 (stereo not given)
[1]
  CC50: > 10000 nM
Plasmodium falciparum [2]
  EC50: 1420 nM
Plasmodium falciparum [3]
  EC50: 1960 nM

## Cc1ccc(Nc2nc(NN=Cc3ccc(-c4ccc([N+](=O)[O-])cc4)o3)nc(Nc3ccccc3)n2)c(C)c1
[1]
  CC50: > 10000 nM
Plasmodium falciparum [2]
  EC50: 387 nM
Plasmodium falciparum [3]
  EC50: > 824 nM

## CC1CN(C(=O)C(Cc2c[nH]c3ccccc23)NC(=O)C(c2ccccc2)c2ccccc2)CCN1C(=O)NCc1ccccc1 (stereo not given)
[1]
  CC50: > 10000 nM
Plasmodium falciparum [2]
  EC50: > 391 nM
Plasmodium falciparum [3]
  EC50: > 1250 nM

## CCOc1ccc(S(=O)(=O)c2cn(Cc3ccccc3C)c3ccc(OC)cc3c2=O)cc1
[1]
  CC50: > 100000 nM
Plasmodium falciparum [2]
  EC50: 3860 nM
Plasmodium falciparum [3]
  EC50: 6270 nM

## CCc1cc2c(cc1-c1csc(NC(=N)N)n1)C(C)(C)CCC2(C)C
[1]
  CC50: 24600 nM
Plasmodium falciparum [2]
  EC50: 961 nM
Plasmodium falciparum [3]
  EC50: 733 nM

## CCc1[nH]nc2c1C(Cc1ccccc1)C(C#N)=C(N)O2 (stereo not given)
[1]
  CC50: > 10000 nM
Plasmodium falciparum [2]
  EC50: 393 nM
Plasmodium falciparum [3]
  EC50: > 1250 nM

## CC[n+]1c(C=Cc2ccc(OC)cc2)ccc2ccccc21
[1]
  CC50: 10300 nM
Plasmodium falciparum [2]
  EC50: 1480 nM
Plasmodium falciparum [3]
  EC50: 690 nM

## C[n+]1c(/C=C/c2ccc(Cl)c(Cl)c2)ccc2ccccc21
[1]
  CC50: > 10000 nM
Plasmodium falciparum [2]
  EC50: 390 nM
Plasmodium falciparum [3]
  EC50: 295 nM

## O=C(NCCc1ccc(Cl)cc1)C1CCCN(c2nnc(N3CCCC3=O)s2)C1 (stereo not given)
[1]
  CC50: > 100000 nM
Plasmodium falciparum [2]
  EC50: 3890 nM
Plasmodium falciparum [3]
  EC50: > 12500 nM

## Oc1ccc(-c2ccc(F)cc2)cc1CNCCCn1ccnc1
[1]
  CC50: > 10000 nM
Plasmodium falciparum [2]
  EC50: 1430 nM
Plasmodium falciparum [3]
  EC50: 1060 nM

## OCc1nc2ccccc2n1Cc1ccccc1F
[1]
  CC50: > 10000 nM
Plasmodium falciparum [2]
  EC50: 1450 nM
Plasmodium falciparum [3]
  EC50: > 1640 nM

## CCCCCN(C(=O)c1ccc(Br)cc1)C(CC)c1nc2ccccc2c(=O)n1-c1ccccc1OC (stereo not given)
[1]
  CC50: > 4400 nM
Plasmodium falciparum [2]
  EC50: 633 nM
Plasmodium falciparum [3]
  EC50: 1020 nM

## c1ccc(-c2nc(Nc3ccncc3)cc(-c3cccnc3)n2)cc1
[1]
  CC50: > 10000 nM
Plasmodium falciparum [2]
  EC50: 1440 nM
Plasmodium falciparum [3]
  EC50: 884 nM

## N#CC(=Cc1ccccc1OCc1ccc(Cl)cc1Cl)c1nc2ccccc2[nH]1
[1]
  CC50: 5050 nM
Plasmodium falciparum [2]
  EC50: 717 nM
Plasmodium falciparum [3]
  EC50: 1130 nM

## COCCCNC(=O)c1c(C)nc2scc(C)n12
[1]
  CC50: > 10000 nM
Plasmodium falciparum [2]
  EC50: > 1450 nM
Plasmodium falciparum [3]
  EC50: > 1080 nM

## CCCNC(=O)c1ccc(OC2CCN(CC(c3ccccc3)c3ccccc3)CC2)c(OC)c1
[1]
  CC50: > 10000 nM
Plasmodium falciparum [2]
  EC50: 392 nM
Plasmodium falciparum [3]
  EC50: 614 nM

## CC(C)(C)c1ccc(C2CC3=Nc4ccccc4N(C(=O)c4ccccc4Cl)C(c4ccc(F)cc4)C3=C(O)C2)cc1 (stereo not given)
[1]
  CC50: > 100000 nM
Plasmodium falciparum [2]
  EC50: 3940 nM
Plasmodium falciparum [3]
  EC50: 2630 nM
